Where two headings read alike, the source gives them in different places.
Tests used:
T. hyodysenteriae [1] = test: MIC of M139603 against thirteen T. hyodysenteriae isolates vs salinomycin and dimetridazole (Example 1, Table 1); type: cell-based, Treponema hyodysenteriae; conditions: for MIC: Brachyspira hyodysenteriae
Procedure: The minimum inhibitory concentration of M139603 was tested in parallel with dimetridazole (May & Baker) and the growth-promoting polyether antibiotic salinomycin (Hoechst) against thirteen strains of T. hyodysenteriae.

T. hyodysenteriae [2] = test: Comparative efficacy of M139603 and monensin in experimentally infected mice (Example 2, Table 2); type: in vivo, mice (strain MF-1); conditions: 25 ppm feed
Excerpt: The infection leads to varying degrees of caecitis, the lesions of which are apparent in animals killed on or about the sixth day post-infection. Caecal specimens examined by bacteriological culture techniques applicable for enumeration of organisms reveal the presence of high populations of T.hyodysenteriae. This disease-model was used in experiments to compare the efficacy of M139603 with that of salinomycin, lasalocid and monensin in suppressing the infection.
In this study, the efficacy of M139603 was tested at 25 ppm feed and that of monensin (Eli Lilly) at 50 or 100 ppm. Groups of infected mice, five per group, were offered the drugs in the feed on five continuous days before killing. Caecal materials were subjected to bacteriological examination to enumerate the populations of viable treponemes per gram of material. […] The group mean in respect of the unmedicated groups was 7.9 cfu/g.

T. hyodysenteriae (P18a) [3] = test: Efficacy of M139603 in preventing swine dysentery in pigs, experimental infection (Example 5, Table 5); type: in vivo; conditions: 25 ppm feed
Procedure: The efficacy of M139603 was tested at 25 ppm feed.
(§1) In this studY two groups (Gp.1 and Gp.2) of pigs, six per group, were experimentally infected with a pathogenic strain of T. hyodysenteriae (P18a, IRAD(Institute for Animal Health), Compton, Berks, U.K.) by oro-gastric inoculation of 50 ml of a culture suspension (1×10^7cfu/ml) of the organism into each animal. From post-infection day (PID) to PID 35 the animals in Gp. 1 were offered ad lib a feed comprising "Kwikwean" meal (Rank, Hovis, McDougall Research Ltd; containing no antibiotics) incorporated with M139603 at 25 ppm. Gp.2 remained on unmedicated feed throughout the trial. Drug efficacy was measured primarily on the basis of the number of diarrhoea or dysentery days in relation to pig-days within a group and on the average daily weight gain per pig, in each group over the period of the trial. The daily gain was calculated by dividing group gain at end of trial (PID 35) by the total number of pig-days from PID 1 to PID 35. […] In the experiment the pigs were exposed to high infective doses of the organism a day before the introduction of the drug. Under normal circumstances preventive dose-regimes are applied on animals at risk and not on those already infected.

[4] = system: T. hyodysenteriae (strain "P18a"); test: Efficacy of M139603 in pigs, natural infection (Example 6, Table 6); type: in vivo; conditions: for Mortality (+ culls): 38 days, 6 pigs; for Number diarrhoea/dysentery days / Percent diarrhoea/dysentery days: pi 1 to 38; for Average weight at end: start 10.95 kg
Procedure: as §1
(§2) In this study, eighteen pigs were allocated to three equal groups (Gp.1-3). Feed incorporated with the drug at 25 or 15 ppm was offered to Gp.1 and 2, respectively, on thirty-eight consecutive days commencing six hours pre-infection. Gp.3 remained on unmedicated feed throughout the trial. The pigs were infected with T. hyodysenteriae (strain "P18a") using methods and materials similar to those applied in Example 5. However, seven days following this exposure (post-infection day 7), over a period of seven consecutive days, the pigs in Gp. 1 and 2 were allowed to co-mingle for about two hours each day with some dysenteric "seeder pigs" in a nearby pen. Drug efficacy, as in Example 6, was assessed primarily on the basis of the total number of diarrhoea/dysentery days per group and on the basis of average daily weight gain per pig per group. The results are indicative of the good efficacy of M139603 even at a level as low as 15 ppm feed in preventing swine dysentery. At this dose-level, the daily drug-intake is unlikely to be more than 0.9 mg/kg/body-weight, if daily feed is calculated at 6% of a pig's body-weight.

T. hyodysenteriae (P18a) [5] = test: Efficacy of M139603 in pigs at low doses (Example 7, Table 7); type: in vivo; design: Group weight / Ave. daily weight-gain: unit not given here; conditions: for Mortality (+ culls): 42 days, 6 pigs
Procedure: as §1, §2
In this experiment twenty-four pigs were split into four equal groups (Gp. 1-4). Gp. 1 and 2 were offered the drug at 15 or 10 ppm feed on forty-two consecutive days, commencing six hours pre-infection. Gp. 3 (infected) and Gp. 4 (uninfected) remained on unmedicated feed throughout. The infection procedures with T. hyodysenteriae (P18a) were similar to those applied above. Only three groups, Gp. 1, 2 and 3 were infected. Gp. 4 remained uninfected in a well-isolated pen throughout the trial period. Three days following the initial exposure to the infection (post-infection day 3), over a period of five continuous days, the pigs in Gp. 1, 2 and 3 were allowed to co-mingle with dysenteric "seeder pigs" housed in a separate pen. Drug efficacy was measured using the criteria applied in the Examples 5 and 6. […] Thereafter, the differences narrowed, primarily due to the placement of Gp. 3 on tiamulin to prevent further weight losses, and consequent deaths. Despite the number of diarrhoea days observed for Gp. 1 (6.8%) and Gp.

**Q.** With `CO[C@@H](C)[C@H]1C[C@H](C)[C@H]([C@@H](C)/C=C/[C@@H]2CC[C@@H](C)[C@H](/C(=C/[C@H]3CCC[C@@H](C)[C@@H]3[C@H](C)C(=O)C3=C(O)COC3=O)CO)O2)O1` [Analogue M139603, tetronasin] as the compound, how does the MIC (T. hyodysenteriae [1]; isolate B78, read-out: MIC) read?
**A.** 0.5 µg/mL

**Q.** And the MIC (T. hyodysenteriae [1]; isolate S82/6, read-out: MIC)?
**A.** 0.2 µg/mL

**Q.** What about the MIC (T. hyodysenteriae [1]; isolate S82/7, read-out: MIC) of the same compound?
**A.** 0.2 µg/mL

**Q.** What about the MIC (T. hyodysenteriae [1]; isolate S83/1, read-out: MIC) of the same compound?
**A.** < 0.1 µg/mL

**Q.** And the MIC (T. hyodysenteriae [1]; isolate S83/2, read-out: MIC)?
**A.** 0.5 µg/mL

**Q.** What about the MIC (T. hyodysenteriae [1]; isolate S83/5, read-out: MIC) of the same compound?
**A.** < 0.1 µg/mL

**Q.** What about the MIC (T. hyodysenteriae [1]; isolate S85/1, read-out: MIC) of the same compound?
**A.** 0.2 µg/mL

**Q.** What about the MIC (T. hyodysenteriae [1]; isolate S85/2, read-out: MIC) of the same compound?
**A.** 0.2 µg/mL

**Q.** And the MIC (T. hyodysenteriae [1]; isolate S85/3, read-out: MIC)?
**A.** 0.2 µg/mL

**Q.** What about the MIC (T. hyodysenteriae [1]; isolate S85/8, read-out: MIC) of the same compound?
**A.** 0.2 µg/mL

**Q.** And the MIC (T. hyodysenteriae [1]; isolate S85/9, read-out: MIC)?
**A.** < 0.1 µg/mL

**Q.** What about the MIC (T. hyodysenteriae [1]; isolate S86/1, read-out: MIC) of the same compound?
**A.** < 0.1 µg/mL

**Q.** What about the MIC (T. hyodysenteriae [1]; isolate S86/2, read-out: MIC) of the same compound?
**A.** 0.2 µg/mL

**Q.** And the MIC (T. hyodysenteriae [1]; mean of 13 strains (table), read-out: Mean MIC)?
**A.** 0.215 µg/mL

**Q.** And the “MIC compared with salinomycin (statistical analysis)” value (T. hyodysenteriae [1]; thirteen strains)?
**A.** significantly (p<0.001) lower MIC

**Q.** And the Suppression of infection (T. hyodysenteriae [2])?
**A.** suppressed the infection

**Q.** And the “Mean (log10) viable treponemes per gram caecum & contents” value (T. hyodysenteriae [2]; 5 days, group mean)?
**A.** 0 log10 per gram

**Q.** What about the “Viable treponemes per gram caecum & contents” value (T. hyodysenteriae [2]; 5 days, individual mice, limit of detection <1.0 × 10^2) of the same compound?
**A.** negative

**Q.** What about the “Efficacy in preventing swine dysentery” value (T. hyodysenteriae (P18a) [3]) of the same compound?
**A.** preventing or minimising the incidence of swine dysentery

**Q.** What about the “Mortality (+ culls)” value (T. hyodysenteriae (P18a) [3]; 35 days, 6 pigs) of the same compound?
**A.** 0

**Q.** What about the Average daily weight-gain (T. hyodysenteriae (P18a) [3]; PID 1-35) of the same compound?
**A.** 0.62 kg

**Q.** What about the Number diarrhoea/dysentery days (T. hyodysenteriae (P18a) [3]; PID 1-35) of the same compound?
**A.** 27 days

**Q.** And the Percent diarrhoea/dysentery days (T. hyodysenteriae (P18a) [3]; PID 1-35)?
**A.** 12.9%

**Q.** What about the “Average weight at termination” value (T. hyodysenteriae (P18a) [3]; start 18.8) of the same compound?
**A.** 40.5

**Q.** What about the “Group weight at termination” value (T. hyodysenteriae (P18a) [3]; start 112 kg) of the same compound?
**A.** 243 kg

**Q.** And the Average daily weight-gain ([4]; 15 ppm feed)?
**A.** 0.72 kg

**Q.** What about the “Efficacy in preventing swine dysentery” value ([4]; 15 ppm feed) of the same compound?
**A.** good efficacy

**Q.** What about the “Mortality (+ culls)” value ([4]; 15 ppm feed) of the same compound?
**A.** 0

**Q.** What about the Number diarrhoea/dysentery days ([4]; 15 ppm feed) of the same compound?
**A.** 0 days

**Q.** And the Percent diarrhoea/dysentery days ([4]; 15 ppm feed)?
**A.** 0%

**Q.** And the “Average weight at end” value ([4]; 15 ppm feed)?
**A.** 41.0 kg

**Q.** And the “Group weight at end” value ([4]; 15 ppm feed, start 65.5 kg)?
**A.** 246.5 kg

**Q.** And the “Animals developing a transient dysentery” value ([4]; 25 ppm feed)?
**A.** one of the six animals

**Q.** And the Average daily weight-gain ([4]; 25 ppm feed)?
**A.** 0.72 kg

**Q.** And the “Mortality (+ culls)” value ([4]; 25 ppm feed)?
**A.** 0

**Q.** And the Number diarrhoea/dysentery days ([4]; 25 ppm feed)?
**A.** 14 days

**Q.** What about the Percent diarrhoea/dysentery days ([4]; 25 ppm feed) of the same compound?
**A.** 6.1%

**Q.** What about the “Average weight at end” value ([4]; 25 ppm feed) of the same compound?
**A.** 41.0 kg

**Q.** What about the “Group weight at end” value ([4]; 25 ppm feed, start 65.7 kg) of the same compound?
**A.** 246.5 kg

**Q.** And the Ave. daily weight-gain (T. hyodysenteriae (P18a) [5]; 10 ppm feed group, post-infection day 44 to 57, inclusive (after withdrawal))?
**A.** 0.65

**Q.** And the “Mortality (+ culls)” value (T. hyodysenteriae (P18a) [5]; 10 ppm feed)?
**A.** 0

**Q.** What about the Ave. daily weight-gain (T. hyodysenteriae (P18a) [5]; 10 ppm feed, day 4 pre-infection to day 22 post-infection) of the same compound?
**A.** 0.59

**Q.** What about the Percent diarrhoea/dysentery days (T. hyodysenteriae (P18a) [5]; 10 ppm feed, post-infection day 1 to 21) of the same compound?
**A.** 4.8%

**Q.** And the No. diarrhoea/dysentery days (T. hyodysenteriae (P18a) [5]; 10 ppm feed, post-infection day 1 to 21 (126 pig-days))?
**A.** 6 days

**Q.** And the Percent diarrhoea/dysentery days (T. hyodysenteriae (P18a) [5]; 10 ppm feed, post-infection day 1 to 42)?
**A.** 11.9%

**Q.** What about the No. diarrhoea/dysentery days (T. hyodysenteriae (P18a) [5]; 10 ppm feed, post-infection day 1 to 42 (252 pig-days)) of the same compound?
**A.** 30 days

**Q.** What about the Group weight (T. hyodysenteriae (P18a) [5]; 10 ppm feed, post-infection day 21, start 66.0) of the same compound?
**A.** 161.0

**Q.** And the Ave. daily weight-gain (T. hyodysenteriae (P18a) [5]; 10 ppm feed, post-infection day 23 to 43, inclusive)?
**A.** 0.83

**Q.** And the Group weight (T. hyodysenteriae (P18a) [5]; 10 ppm feed, post-infection day 43 (1 day from withdrawal of medication))?
**A.** 265.0

**Q.** And the “Average daily weight-gain vs uninfected, unmedicated group” value (T. hyodysenteriae (P18a) [5]; 15 or 10 ppm feed)?
**A.** exceeded that recorded for pigs in the uninfected, unmedicated group

**Q.** And the “Weight gain vs unmedicated, infected group” value (T. hyodysenteriae (P18a) [5]; 15 or 10 ppm feed, by post-infection day 21)?
**A.** Significant weight gain differences

**Q.** What about the Ave. daily weight-gain (T. hyodysenteriae (P18a) [5]; 15 ppm feed group, post-infection day 44 to 57, inclusive (after withdrawal)) of the same compound?
**A.** 0.86

**Q.** And the “Mortality (+ culls)” value (T. hyodysenteriae (P18a) [5]; 15 ppm feed)?
**A.** 0

**Q.** And the Ave. daily weight-gain (T. hyodysenteriae (P18a) [5]; 15 ppm feed, day 4 pre-infection to day 22 post-infection)?
**A.** 0.56

**Q.** And the Percent diarrhoea/dysentery days (T. hyodysenteriae (P18a) [5]; 15 ppm feed, post-infection day 1 to 21)?
**A.** 4%

**Q.** And the No. diarrhoea/dysentery days (T. hyodysenteriae (P18a) [5]; 15 ppm feed, post-infection day 1 to 21 (126 pig-days))?
**A.** 5 days

**Q.** What about the Percent diarrhoea/dysentery days (T. hyodysenteriae (P18a) [5]; 15 ppm feed, post-infection day 1 to 42) of the same compound?
**A.** 6.8%

**Q.** What about the No. diarrhoea/dysentery days (T. hyodysenteriae (P18a) [5]; 15 ppm feed, post-infection day 1 to 42 (252 pig-days)) of the same compound?
**A.** 17 days

**Q.** And the Group weight (T. hyodysenteriae (P18a) [5]; 15 ppm feed, post-infection day 21, start 63.7)?
**A.** 153.7

**Q.** And the Ave. daily weight-gain (T. hyodysenteriae (P18a) [5]; 15 ppm feed, post-infection day 23 to 43, inclusive)?
**A.** 0.81

**Q.** And the Group weight (T. hyodysenteriae (P18a) [5]; 15 ppm feed, post-infection day 43 (1 day from withdrawal of medication))?
**A.** 225.5

**Q.** What about the Group weight (T. hyodysenteriae (P18a) [5]; 15 ppm feed, post-infection day 57 (15 days from withdrawal of medication)) of the same compound?
**A.** 327.5

**Q.** And the “Feed level found to be effective (lowest)” value (T. hyodysenteriae (P18a) [5]; in the feed)?
**A.** 10 ppm

Reference: patent US4999374A, “Veterinary treatment” (priority 1987, dated 1991)
